Measurements: DBAASP
In brackets after ≈: the same amount, converted by molar mass.

Assays:
Assay in all cases: ≥ marks a high value that may be exact or a test limit, other limits are often not marked, values filed in µg/mL are converted to µM
[1] = tested on: Pseudomonas aeruginosa Ps4
Staphylococcus aureus = tested on: Staphylococcus aureus
Pseudomonas aeruginosa = tested on: Pseudomonas aeruginosa
[2] = tested on: Candida albicans F7-39/IDE99
Bacillus subtilis = tested on: Bacillus subtilis
Escherichia coli B = tested on: Escherichia coli B
Bacillus subtilis 168 = tested on: Bacillus subtilis 168
Botrytis cinerea = tested on: Botrytis cinerea
[3] = tested on: Candida albicans ATCC 10231
[4] = tested on: Staphylococcus aureus ATCC 12600
[5] = tested on: Escherichia coli ATCC 11775
Escherichia coli = tested on: Escherichia coli
Acinetobacter baumannii = tested on: Acinetobacter baumannii
[6] = tested on: Pseudomonas aeruginosa CICC 21630
Klebsiella pneumoniae = tested on: Klebsiella pneumoniae
[7] = tested on: Pseudomonas aeruginosa ATCC 27853
[8] = tested on: Salmonella enterica subsp. enterica serovar Typhimurium C77-31
[9] = tested on: Escherichia coli ATCC 25922
[10] = tested on: Pseudomonas aeruginosa PAO1
[11] = tested on: Pseudomonas aeruginosa CICC 21625
[12] = tested on: Salmonella enterica subsp. enterica serovar Typhimurium ATCC 14028
[13] = tested on: Salmonella enterica subsp. enterica serovar Pullorum C79-13
Escherichia coli K88 = tested on: Escherichia coli K88
Escherichia coli UB1005 = tested on: Escherichia coli UB1005
Escherichia coli K99 = tested on: Escherichia coli K99
[14] = tested on: Staphylococcus aureus ATCC 25923
[15] = tested on: Escherichia coli ATCC 8739

CC[C@H](C)[C@H](N)C(=O)N[C@@H](Cc1c[nH]c2ccccc12)C(=O)N[C@@H](CCC(N)=O)C(=O)N[C@@H](CCCN=C(N)N)C(=O)N[C@@H](CC(N)=O)C(=O)N[C@H](C(=O)N[C@@H](CCCN=C(N)N)C(=O)N[C@H](C(=O)N[C@@H](CCCN=C(N)N)C(=O)N[C@@H](CCCN=C(N)N)C(N)=O)[C@@H](C)CC)[C@@H](C)CC [IWQRNIRIRR]
MIC [1]: ≥ 177 µM

CC[C@H](C)[C@H](NC(=O)[C@H](C)NC(=O)[C@H](C)NC(=O)[C@H](CC(C)C)NC(=O)[C@@H](NC(=O)[C@H](CCCCN)NC(=O)[C@H](CCCN=C(N)N)NC(=O)[C@@H]1CCCN1C(=O)[C@H](CC(C)C)NC(=O)CN)[C@@H](C)CC)C(=O)N[C@@H](C)C(=O)N[C@@H](CCCCN)C(=O)N[C@@H](CCCCN)C(=O)N[C@@H](CCCCN)C(N)=O [GLPRKILAAIAKKK]
MIC (Staphylococcus aureus): > 100 µM
MIC (Pseudomonas aeruginosa): > 100 µM
MIC [2]: ≥ 100 µM
MIC (Bacillus subtilis): ≥ 35 µM
MIC (Escherichia coli B): ≥ 100 µM

CC[C@H](C)[C@H](NC(=O)[C@H](Cc1cnc[nH]1)NC(=O)[C@H](CCCCN)NC(=O)[C@H](CC(C)C)NC(=O)[C@H](CC(C)C)NC(=O)[C@H](CCCCN)NC(=O)[C@H](CCSC)NC(=O)[C@H](Cc1c[nH]c2ccccc12)NC(=O)[C@H](CCCCN)NC(=O)CN)C(=O)N[C@@H](CC(C)C)C(=O)N[C@@H](CCCCN)C(N)=O [GKWMKLLKHILK]
MIC (Staphylococcus aureus): 4.5 µM (≈ 6.72 µg/mL)
MIC (Pseudomonas aeruginosa): 10.7 µM (≈ 16 µg/mL)
MIC [2]: 4.5 µM (≈ 6.72 µg/mL)
MIC (Bacillus subtilis 168): 0.8 µM (≈ 1.2 µg/mL)
MIC (Escherichia coli B): 2.5 µM (≈ 3.73 µg/mL)

CC[C@H](C)[C@H](NC(=O)[C@H](C)NC(=O)[C@H](CO)NC(=O)[C@@H](NC(=O)[C@@H](NC(=O)[C@@H](NC(=O)[C@H](Cc1cnc[nH]1)NC(=O)[C@H](CC(C)C)NC(=O)[C@H](CC(=O)O)NC(=O)[C@@H](N)CCCCN)[C@@H](C)O)C(C)C)C(C)C)C(=O)N[C@@H](CC(C)C)C(=O)N[C@@H](CCC(N)=O)C(=O)N[C@@H](C)C(=O)N[C@@H](CC(C)C)C(N)=O [KDLHTVVSAILQAL]
MIC (Botrytis cinerea): 5.31 µM (≈ 7.99 µg/mL)
MIC [3]: 33.2 µM (≈ 50 µg/mL)
MIC [4]: ≥ 66.3 µM
MIC [5]: ≥ 66.3 µM

CC[C@H](C)[C@H](NC(=O)[C@H](CCCN=C(N)N)NC(=O)[C@H](Cc1c[nH]c2ccccc12)NC(=O)CNC(=O)[C@H](CCCN=C(N)N)NC(=O)[C@H](Cc1c[nH]c2ccccc12)NC(=O)[C@@H](N)Cc1ccccc1)C(=O)N[C@@H](CCCN=C(N)N)C(=O)N[C@@H](CCCN=C(N)N)C(N)=O [FWRGWRIRR]
MIC [1]: ≥ 93.8 µM

CC(C)C[C@H](NC(=O)[C@@H]1CCCN1C(=O)[C@H](CCCN=C(N)N)NC(=O)[C@H](CC(C)C)NC(=O)[C@H](CC(C)C)NC(=O)[C@@H]1CCCN1C(=O)[C@H](CCCN=C(N)N)NC(=O)[C@H](CC(C)C)NC(=O)[C@H](CC(C)C)NC(=O)[C@@H]1CCCN1C(=O)[C@H](CCCN=C(N)N)NC(=O)[C@H](CC(C)C)NC(=O)[C@H](CC(C)C)NC(=O)[C@@H]1CCCN1C(=O)[C@H](CCCN=C(N)N)NC(=O)[C@@H](N)CC(C)C)C(N)=O [LRPLLRPLLRPLLRPL]
MIC (Escherichia coli): 16 µM (≈ 31 µg/mL)
MIC (Acinetobacter baumannii): 2 µM (≈ 3.87 µg/mL)
MIC [6]: ≥ 64 µM
MIC (Klebsiella pneumoniae): > 64 µM
MIC [7]: > 64 µM
MIC [8]: ≥ 64 µM
MIC [9]: 8 µM (≈ 15.5 µg/mL)
MIC [10]: > 64 µM
MIC (Pseudomonas aeruginosa): > 64 µM
MIC [11]: ≥ 64 µM
MIC [12]: 32 µM (≈ 61.9 µg/mL)
MIC [13]: 8 µM (≈ 15.5 µg/mL)
MIC (Escherichia coli K88): 8 µM (≈ 15.5 µg/mL)
MIC (Escherichia coli UB1005): ≥ 32 µM
MIC (Escherichia coli K99): ≥ 32 µM

CC[C@H](C)[C@H](NC(=O)[C@H](CCCN=C(N)N)NC(=O)[C@H](C)NC(=O)[C@H](C)NC(=O)[C@H](CC(C)C)NC(=O)[C@H](CCCCN)NC(=O)[C@H](CCCCN)NC(=O)[C@H](CCCCN)NC(=O)[C@H](CCSC)NC(=O)[C@@H]1CCCN1)C(=O)N[C@@H](CC(C)C)C(=O)N[C@@H](C)C(=O)N[C@@H](CCCCN)C(=O)N[C@H](C(=O)N[C@H](C(=O)N[C@@H](C)C(=O)N1CCC[C@H]1C(=O)N[C@H](C(=O)N[C@@H](Cc1c[nH]c2ccccc12)C(=O)O)C(C)C)C(C)C)[C@@H](C)CC [PMKKKLAARILAKIVAPVW]
MIC (Escherichia coli): 30 µM (≈ 64 µg/mL)
MIC (Klebsiella pneumoniae): 60.9 µM (≈ 130 µg/mL)
MIC [9]: 11.7 µM (≈ 25 µg/mL)
MIC [14]: > 120 µM
MIC [15]: 7.5 µM (≈ 16 µg/mL)

CC[C@H](C)[C@H](NC(=O)[C@H](CC(N)=O)NC(=O)[C@H](CCCN=C(N)N)NC(=O)[C@H](CCC(N)=O)NC(=O)[C@H](Cc1c[nH]c2ccccc12)NC(=O)[C@@H](N)CCCN=C(N)N)C(=O)N[C@@H](CCCN=C(N)N)C(=O)N[C@@H](CCCCN)C(=O)N[C@@H](Cc1ccc(O)cc1)C(=O)N[C@@H](CCCN=C(N)N)C(=O)N[C@@H](CCCN=C(N)N)C(N)=O [RWQRNIRKYRR]
MIC [1]: ≥ 153 µM

CC(C)C[C@H](NC(=O)[C@H](C)NC(=O)[C@H](CO)NC(=O)[C@H](C)NC(=O)[C@@H](NC(=O)[C@H](CCCCN)NC(=O)[C@H](CCCCN)NC(=O)[C@@H](NC(=O)[C@H](CC(C)C)NC(=O)CNC(=O)[C@H](CC(C)C)NC(=O)[C@H](CC(C)C)NC(=O)[C@H](CC(=O)O)NC(=O)[C@@H](N)Cc1ccccc1)C(C)C)C(C)C)C(N)=O [FDLLGLVKKVASAL]
MIC (Botrytis cinerea): 5 µM (≈ 7.36 µg/mL)
MIC [3]: 100 µM (≈ 147 µg/mL)
MIC [4]: ≥ 50 µM
MIC [5]: ≥ 100 µM

CC[C@H](C)[C@H](NC(=O)[C@H](CC(N)=O)NC(=O)[C@H](CCCN=C(N)N)NC(=O)[C@H](CCC(N)=O)NC(=O)[C@H](Cc1c[nH]c2ccccc12)NC(=O)[C@@H](NC(=O)[C@@H](N)Cc1ccccc1)[C@@H](C)CC)C(=O)N[C@@H](CCCN=C(N)N)C(=O)N[C@@H](CCCCN)C(=O)N[C@H](C(=O)N[C@@H](CCCN=C(N)N)C(N)=O)C(C)C [FIWQRNIRKVR]
MIC [1]: ≥ 165 µM

CC[C@H](C)[C@H](N)C(=O)N[C@@H](CCCCN)C(=O)N1CCC[C@H]1C(=O)N[C@H](C(=O)N[C@H](C(=O)N[C@@H](CCCCN)C(=O)N1CCC[C@H]1C(=O)N[C@H](C(=O)N[C@H](C(=O)N[C@@H](CCCCN)C(=O)N1CCC[C@H]1C(=O)N[C@H](C(=O)N[C@H](C(=O)N[C@@H](CCCCN)C(=O)N1CCC[C@H]1C(=O)N[C@H](C(=O)N[C@H](C(=O)N[C@@H](CCCCN)C(=O)N1CCC[C@H]1C(=O)N[C@H](C(=O)N[C@H](C(=O)N[C@@H](CCCCN)C(=O)N1CCC[C@H]1C(=O)N[C@H](C(=O)N[C@H](C(=O)N[C@@H](CCCCN)C(=O)N1CCC[C@H]1C(=O)N[C@H](C(N)=O)[C@@H](C)CC)[C@@H](C)CC)[C@@H](C)CC)[C@@H](C)CC)[C@@H](C)CC)[C@@H](C)CC)[C@@H](C)CC)[C@@H](C)CC)[C@@H](C)CC)[C@@H](C)CC)[C@@H](C)CC)[C@@H](C)CC)[C@@H](C)CC [IKPIIKPIIKPIIKPIIKPIIKPIIKPI]
MIC (Escherichia coli): 16 µM (≈ 50.9 µg/mL)
MIC (Acinetobacter baumannii): 2 µM (≈ 6.36 µg/mL)
MIC [6]: ≥ 64 µM
MIC (Klebsiella pneumoniae): 16 µM (≈ 50.9 µg/mL)
MIC [7]: > 64 µM
MIC [8]: ≥ 64 µM
MIC [9]: 8 µM (≈ 25.4 µg/mL)
MIC [10]: > 64 µM
MIC (Pseudomonas aeruginosa): > 64 µM
MIC [11]: ≥ 64 µM
MIC [12]: 64 µM (≈ 203 µg/mL)
MIC [13]: ≥ 64 µM
MIC (Escherichia coli K88): 2 µM (≈ 6.36 µg/mL)
MIC (Escherichia coli UB1005): 16 µM (≈ 50.9 µg/mL)
MIC (Escherichia coli K99): 2 µM (≈ 6.36 µg/mL)

CC[C@H](C)[C@H](N)C(=O)N[C@@H](CC(C)C)C(=O)N1CCC[C@H]1C(=O)N[C@H](C(=O)N[C@@H](CC(C)C)C(=O)N[C@@H](C)C(=O)N1CCC[C@H]1C(=O)N[C@@H](CC(C)C)C(=O)N[C@H](C(=O)NCC(=O)NCC(=O)N[C@@H](CC(C)C)C(=O)N[C@@H](CC(C)C)C(N)=O)[C@@H](C)CC)[C@@H](C)CC [ILPILAPLIGGLL]
MIC [4]: ≥ 100 µM
MIC [5]: ≥ 100 µM
